Results reported in ChEMBL document CHEMBL3885861, “Open TG-GATES”.

Species: Rattus norvegicus
Assay: Open TG-GATES - Regimen: Daily Repeat
Type: toxicity, organism-based, Sprague-Dawley
Set-up: regimen Daily Repeat, gender Male, age 6 weeks
Conditions: in vivo, po, route gavage; for APTT / Bas / Eos / Fbg / Hb / Ht / Lym / MCH / MCHC / Mono / Neu / Plat / RBC / Ret: tissue Blood; for KIDNEY_L / KIDNEY_R / KIDNEY_TOTAL: tissue Kidney; for LIVER: tissue Liver; for ALP / ALT / AST / BUN / CRE / Ca / Cl / DBIL / GLC / IP / K / LDH / Na / PL / RALB / TBIL / TC / TG / TP / gamma-GTP: tissue Plasma
[1] = 10 mg/kg, 72 h, dose level Middle, time 3 day
[2] = 10 mg/kg, […], dose level Middle, time 7 day
[3] = 10 mg/kg, […], dose level Middle, time 14 day
[4] = 10 mg/kg, […], dose level Middle, time 28 day
[5] = 30 mg/kg, 72 h, dose level High, time 3 day
[6] = 30 mg/kg, […], dose level High, time 7 day
[7] = 30 mg/kg, […], dose level High, time 14 day
[8] = 30 mg/kg, […], dose level High, time 28 day

SMILES: O=C(CCCN1CCC(O)(c2ccc(Cl)cc2)CC1)c1ccc(F)cc1 [HALOPERIDOL]
- TERMINAL_BW [1]: 211.5 g
- APTT [1]: 16 s
- Bas [1]: 0%
- Eos [1]: 0.6%
- Fbg [1]: 205.8 mg/dL
- Hb [1]: 14.8 g/dL
- Ht [1]: 44.6%
- Lym [1]: 81.4%
- MCH [1]: 21.3 pg
- MCHC [1]: 33.3%
- Mono [1]: 5.8%
- Neu [1]: 12.2%
- Plat [1]: 127.9 x10_4/uL
- RBC [1]: 695.4 x10_4/ul
- Ret [1]: 4.6%
- KIDNEY_L [1]: 0.9 g
- KIDNEY_R [1]: 0.9 g
- KIDNEY_TOTAL [1]: 1.8 g
- LIVER [1]: 10.3 g
- ALP [1]: 873.2 IU/L
- ALT [1]: 41 IU/L
- AST [1]: 64 IU/L
- BUN [1]: 22.2 mg/dL
- CRE [1]: 0.5 mg/dL
- Ca [1]: 11.3 mg/dL
- Cl [1]: 106.2 meq/L
- DBIL [1]: 0.002 mg/dL
- GLC [1]: 180 mg/dL
- IP [1]: 7.8 mg/dL
- K [1]: 4.7 meq/L
- LDH [1]: 95 IU/L
- Na [1]: 138.8 meq/L
- PL [1]: 177.8 mg/dL
- RALB [1]: 4.2 g/dL
- TBIL [1]: 0.2 mg/dL
- TC [1]: 78.2 mg/dL
- TG [1]: 156.2 mg/dL
- TP [1]: 6.2 g/dL
- gamma-GTP [1]: 1.2 IU/L
- TERMINAL_BW [2]: 234.1 g
- TERMINAL_BW [3]: 281.3 g
- TERMINAL_BW [4]: 341 g
- APTT [2]: 16.8 s
- Bas [2]: 0%
- Eos [2]: 0.4%
- Fbg [2]: 215.6 mg/dL
- Hb [2]: 15 g/dL
- Ht [2]: 44.6%
- Lym [2]: 75.4%
- MCH [2]: 21 pg
- MCHC [2]: 33.7%
- Mono [2]: 5%
- Neu [2]: 19.2%
- Plat [2]: 99.5 x10_4/uL
- RBC [2]: 717.6 x10_4/ul
- Ret [2]: 3.7%
- APTT [3]: 16.3 s
- Bas [3]: 0%
- Eos [3]: 0.2%
- Fbg [3]: 212.2 mg/dL
- Hb [3]: 14.7 g/dL
- Ht [3]: 43.9%
- Lym [3]: 75.6%
- MCH [3]: 20.3 pg
- MCHC [3]: 33.5%
- Mono [3]: 4.2%
- Neu [3]: 20%
- Plat [3]: 93.8 x10_4/uL
- RBC [3]: 722.2 x10_4/ul
- Ret [3]: 3.6%
- APTT [4]: 16 s
- Bas [4]: 0%
- Eos [4]: 0.4%
- Fbg [4]: 220.6 mg/dL
- Hb [4]: 15.3 g/dL
- Ht [4]: 45.8%
- Lym [4]: 78.8%
- MCH [4]: 19.5 pg
- MCHC [4]: 33.5%
- Mono [4]: 5.6%
- Neu [4]: 15.2%
- Plat [4]: 95.6 x10_4/uL
- RBC [4]: 788.6 x10_4/ul
- Ret [4]: 2.6%
- KIDNEY_L [2]: 1 g
- KIDNEY_R [2]: 1 g
- KIDNEY_TOTAL [2]: 1.9 g
- KIDNEY_L [3]: 1.1 g
- KIDNEY_R [3]: 1.1 g
- KIDNEY_TOTAL [3]: 2.2 g
- KIDNEY_L [4]: 1.2 g
- KIDNEY_R [4]: 1.2 g
- KIDNEY_TOTAL [4]: 2.4 g
- LIVER [2]: 10.8 g
- LIVER [3]: 12.3 g
- LIVER [4]: 13.4 g
- ALP [2]: 930.4 IU/L
- ALT [2]: 38.6 IU/L
- AST [2]: 66.8 IU/L
- BUN [2]: 20.2 mg/dL
- CRE [2]: 0.6 mg/dL
- Ca [2]: 11.4 mg/dL
- Cl [2]: 106.6 meq/L
- DBIL [2]: 0.004 mg/dL
- GLC [2]: 179.6 mg/dL
- IP [2]: 7.3 mg/dL
- K [2]: 4.6 meq/L
- LDH [2]: 84.8 IU/L
- Na [2]: 139 meq/L
- PL [2]: 174.4 mg/dL
- RALB [2]: 4 g/dL
- TBIL [2]: 0.3 mg/dL
- TC [2]: 84.8 mg/dL
- TG [2]: 123.8 mg/dL
- TP [2]: 6.2 g/dL
- gamma-GTP [2]: 1.8 IU/L
- ALP [3]: 773.8 IU/L
- ALT [3]: 29.2 IU/L
- AST [3]: 62.8 IU/L
- BUN [3]: 19.8 mg/dL
- CRE [3]: 0.4 mg/dL
- Ca [3]: 10.7 mg/dL
- Cl [3]: 107 meq/L
- DBIL [3]: 0.036 mg/dL
- GLC [3]: 184.2 mg/dL
- IP [3]: 7.8 mg/dL
- K [3]: 4.5 meq/L
- LDH [3]: 83.2 IU/L
- Na [3]: 138.4 meq/L
- PL [3]: 156 mg/dL
- RALB [3]: 4 g/dL
- TBIL [3]: 0.3 mg/dL
- TC [3]: 70.2 mg/dL
- TG [3]: 146 mg/dL
- TP [3]: 6.2 g/dL
- gamma-GTP [3]: 1.6 IU/L
- ALP [4]: 603.8 IU/L
- ALT [4]: 32.4 IU/L
- AST [4]: 66.8 IU/L
- BUN [4]: 20.4 mg/dL
- CRE [4]: 0.6 mg/dL
- Ca [4]: 10.7 mg/dL
- Cl [4]: 107.8 meq/L
- DBIL [4]: 0.062 mg/dL
- GLC [4]: 172.8 mg/dL
- IP [4]: 6.4 mg/dL
- K [4]: 4.7 meq/L
- LDH [4]: 72 IU/L
- Na [4]: 139.4 meq/L
- PL [4]: 141 mg/dL
- RALB [4]: 4.2 g/dL
- TBIL [4]: 0.3 mg/dL
- TC [4]: 63.6 mg/dL
- TG [4]: 133.4 mg/dL
- TP [4]: 6.7 g/dL
- gamma-GTP [4]: 1.6 IU/L
- TERMINAL_BW [5]: 179.6 g
- APTT [5]: 15.7 s
- Bas [5]: 0%
- Eos [5]: 1%
- Fbg [5]: 192.8 mg/dL
- Hb [5]: 15.9 g/dL
- Ht [5]: 47.3%
- Lym [5]: 83.4%
- MCH [5]: 21.2 pg
- MCHC [5]: 33.6%
- Mono [5]: 5%
- Neu [5]: 10.6%
- Plat [5]: 127.3 x10_4/uL
- RBC [5]: 751.8 x10_4/ul
- Ret [5]: 2.4%
- KIDNEY_L [5]: 0.8 g
- KIDNEY_R [5]: 0.9 g
- KIDNEY_TOTAL [5]: 1.7 g
- LIVER [5]: 7.7 g
- ALP [5]: 686.4 IU/L
- ALT [5]: 29.4 IU/L
- AST [5]: 62 IU/L
- BUN [5]: 28.2 mg/dL
- CRE [5]: 0.6 mg/dL
- Ca [5]: 11.2 mg/dL
- Cl [5]: 108.6 meq/L
- DBIL [5]: 0.002 mg/dL
- GLC [5]: 162.2 mg/dL
- IP [5]: 8.5 mg/dL
- K [5]: 4.7 meq/L
- LDH [5]: 176.8 IU/L
- Na [5]: 142.2 meq/L
- PL [5]: 159.6 mg/dL
- RALB [5]: 4.4 g/dL
- TBIL [5]: 0.2 mg/dL
- TC [5]: 88.2 mg/dL
- TG [5]: 80.8 mg/dL
- TP [5]: 6.2 g/dL
- gamma-GTP [5]: 1.2 IU/L
- TERMINAL_BW [6]: 213.8 g
- TERMINAL_BW [7]: 254.9 g
- TERMINAL_BW [8]: 329.7 g
- APTT [6]: 16.7 s
- Bas [6]: 0%
- Eos [6]: 0.4%
- Fbg [6]: 189.6 mg/dL
- Hb [6]: 15.4 g/dL
- Ht [6]: 46.2%
- Lym [6]: 82%
- MCH [6]: 21 pg
- MCHC [6]: 33.4%
- Mono [6]: 6.8%
- Neu [6]: 10.8%
- Plat [6]: 89.5 x10_4/uL
- RBC [6]: 735.6 x10_4/ul
- Ret [6]: 2.5%
- APTT [7]: 15.9 s
- Bas [7]: 0%
- Eos [7]: 0.4%
- Fbg [7]: 195.2 mg/dL
- Hb [7]: 15.4 g/dL
- Ht [7]: 46.4%
- Lym [7]: 84.6%
- MCH [7]: 20 pg
- MCHC [7]: 33.3%
- Mono [7]: 3.4%
- Neu [7]: 11.6%
- Plat [7]: 94.6 x10_4/uL
- RBC [7]: 773.4 x10_4/ul
- Ret [7]: 2.9%
- APTT [8]: 16.7 s
- Bas [8]: 0%
- Eos [8]: 0.6%
- Fbg [8]: 210.2 mg/dL
- Hb [8]: 15.2 g/dL
- Ht [8]: 45.1%
- Lym [8]: 84.4%
- MCH [8]: 19.4 pg
- MCHC [8]: 33.6%
- Mono [8]: 3.6%
- Neu [8]: 11.4%
- Plat [8]: 96.5 x10_4/uL
- RBC [8]: 782.8 x10_4/ul
- Ret [8]: 2.6%
- KIDNEY_L [6]: 0.9 g
- KIDNEY_R [6]: 0.9 g
- KIDNEY_TOTAL [6]: 1.8 g
- KIDNEY_L [7]: 1 g
- KIDNEY_R [7]: 1.1 g
- KIDNEY_TOTAL [7]: 2.1 g
- KIDNEY_L [8]: 1.2 g
- KIDNEY_R [8]: 1.2 g
- KIDNEY_TOTAL [8]: 2.4 g
- LIVER [6]: 10.3 g
- LIVER [7]: 10.8 g
- LIVER [8]: 12.8 g
- ALP [6]: 1009 IU/L
- ALT [6]: 38.8 IU/L
- AST [6]: 67.2 IU/L
- BUN [6]: 25.4 mg/dL
- CRE [6]: 0.5 mg/dL
- Ca [6]: 11.8 mg/dL
- Cl [6]: 106 meq/L
- DBIL [6]: 0.008 mg/dL
- GLC [6]: 164.2 mg/dL
- IP [6]: 7.6 mg/dL
- K [6]: 4.6 meq/L
- LDH [6]: 154.4 IU/L
- Na [6]: 140 meq/L
- PL [6]: 175.6 mg/dL
- RALB [6]: 4.1 g/dL
- TBIL [6]: 0.2 mg/dL
- TC [6]: 77.6 mg/dL
- TG [6]: 113.6 mg/dL
- TP [6]: 6.1 g/dL
- gamma-GTP [6]: 1.6 IU/L
- ALP [7]: 689.4 IU/L
- ALT [7]: 30.2 IU/L
- AST [7]: 65 IU/L
- BUN [7]: 24 mg/dL
- CRE [7]: 0.5 mg/dL
- Ca [7]: 11 mg/dL
- Cl [7]: 105.6 meq/L
- DBIL [7]: 0.012 mg/dL
- GLC [7]: 179.4 mg/dL
- IP [7]: 7.8 mg/dL
- K [7]: 4.7 meq/L
- LDH [7]: 178.6 IU/L
- Na [7]: 138.8 meq/L
- PL [7]: 162.4 mg/dL
- RALB [7]: 3.9 g/dL
- TBIL [7]: 0.3 mg/dL
- TC [7]: 76.2 mg/dL
- TG [7]: 107.4 mg/dL
- TP [7]: 6.1 g/dL
- gamma-GTP [7]: 1.2 IU/L
- ALP [8]: 528.8 IU/L
- ALT [8]: 31.6 IU/L
- AST [8]: 65.4 IU/L
- BUN [8]: 25.6 mg/dL
- CRE [8]: 0.5 mg/dL
- Ca [8]: 11.1 mg/dL
- Cl [8]: 107 meq/L
- DBIL [8]: 0.076 mg/dL
- GLC [8]: 177.8 mg/dL
- IP [8]: 7.6 mg/dL
- K [8]: 4.7 meq/L
- LDH [8]: 138.6 IU/L
- Na [8]: 140.2 meq/L
- PL [8]: 148.6 mg/dL
- RALB [8]: 3.9 g/dL
- TBIL [8]: 0.2 mg/dL
- TC [8]: 67 mg/dL
- TG [8]: 136.8 mg/dL
- TP [8]: 6.3 g/dL
- gamma-GTP [8]: 2.2 IU/L
